{
  "source": "patent US9044420B2",
  "about": "“Immunogenic compositions and methods of using the compositions for inducing humoral and cellular immune responses” (IMMUNE DESIGN CORP., priority 2011, dated 2015)",
  "key": {"[1]": {"test_system": "Splenic CD4 T cell responses (SIV-Gag DD13 epitope)", "assay": "Splenic CD4 T cell responses by ICS after SIV-Gag protein with or without GLA-SE (Example 8)", "format": "in vivo, C57BL/6 mice", "settings": "5 μg SIV-Gag protein + 5 μg GLA-SE vs SE alone or PBS, i.m. d0/d21, day 5 post-boost", "procedure": "C57BL/6 mice (4 per group) were immunized intramuscularly via a prime/boost immunization regimen (d0 prime/d21 boost) with 5 μg of recombinant SIV-Gag protein+5 μg of GLA-SE, SE alone, or PBS. Splenic CD4 T cell responses were measured on day 5 post-boost by ICS for IFN-γ, TNF-α, and IL-2 after ex vivo re-stimulation with SIV-Gag CD4 T cell epitope containing peptide DD13 (amino acids 299-311 of SIV-GAG; DRFYKSLRAEQTD; SEQ ID NO: 45)"}, "[2]": {"test_system": "HSV", "settings": "continuous suppressive administration, early intervention; Corey et al. 2004; cited from earlier work"}},
  "data": [
    {"smiles": "CCCCCCCCCCCCCC(=O)O[C@H](CCCCCCCCCCC)CC(=O)O[C@@H]1[C@@H](NC(=O)C[C@H](CCCCCCCCCCC)OC(=O)CCCCCCCCCCCCC)[C@H](OC[C@H]2O[C@H](O)[C@H](NC(=O)C[C@H](O)CCCCCCCCCCC)[C@@H](OC(=O)C[C@H](O)CCCCCCCCCCC)[C@@H]2O)O[C@H](CO)[C@H]1OP(=O)(O)O", "note": "[GLA, glucopyranosyl lipid A]", "values": [
      {"measurement": "Th1 CD4 T cell response after immunization with SIV-Gag recombinant protein", "setting": "[1]", "result": "required for a robust Th1 CD4 T cell response"}
    ]},
    {"smiles": "CC(C)[C@H](N)C(=O)OCCOCn1cnc2c(=O)[nH]c(N)nc21", "note": "[Valacyclovir]", "values": [
      {"measurement": "reduction of HSV transmission", "setting": "[2]", "result": "less than 50%"}
    ]}
  ]
}
